Source: patent US6759430B2, “Piperidine and pyrrolidine derivatives comprising a nitric oxide donor for treating stress” (OxoN Medica Inc., priority 1998, dated 2004)

What was measured:
[1] = in vivo blood pressure (mean arterial pressure) monitoring in anesthetized rats; parameters: species or system rat
Experimental: (§1) Materials: Male Sprague-Dawley rats (250-300 g) were purchased from the Animal Care Facility of the Hebrew University and used in the rat aortic rings (RARs) relaxation studies in vitro and the blood pressure monitoring and cGMP studies in vivo.
In the in vivo experiment, rats were anesthetized with an intraperitoneal injection of a combination of ketamine and xylazine (50 and 10 mg per kg, respectively). A catheter was placed in the right external jugular vein and introduced to the level of right atrium. A second arterial catheter was placed in the left carotid artery and introduced to the level of the ascending aorta. The tip of arterial catheter was connected to a pressure transducer which is connected to another electrical transducer connected to a computerized Experimetria system. Blood-pressure (mean arterial pressure=MAP) was recorded before (basal) and after drug administration. NO-TEMPO was injected through the venous catheter and induced a significant drop in MAP which lasts for 5 to 10 minutes. Values for basal MAP were 130±15 before and 60±10 mm Hg following a 1 mg injection of NO-TEMPO.

[2] = tested on: rat aortic rings (RARs); experiment: in vitro induction of tolerance in rat aortic rings; type: cell-based; settings: for tolerance induction in vitro: RARs pre-exposed to 0.44 mM of the drug for 1 hr; for vaso-relaxant effect on rings before and after exposure to GTN: rings exposed to 0.44 mM GTN for 1 hr, FIGS. 4 and 5; for vaso-relaxant potency, control versus NO-TEMPO-pre-treated RARs: rings exposed to 0.44 mM NO-TEMPO, FIGS. 7 and 8
Experimental: as §1
In vitro induction of GTN tolerance: Aortic rings were treated as for the control studies except that rings were exposed to 0.44 mM GTN for 1 hr. At the end of the tolerance induction period, rings were washed every 15 min for the following hour. Attempted induction of tolerance to NO-TEMPO was performed under the same conditions as for GTN with rings exposed to 0.44 mM solution of NO-TEMPO. CCRC were constructed for NO-TEMPO and GTN. […] This conclusion is further supported by separately evaluating the vaso-relaxant effect of each drug on control and NO-TEMPO-pre-treated RARs.

[3] = in vivo induction of tolerance, subcutaneous dosing; parameters: species or system rat; settings: subcutaneously 30 mg/kg t.i.d for three consecutive days
[4] = superoxide scavenging activity in vitro (photometric microassay, xanthine oxidase/hypoxanthine, ferricytochrome c reduction); type: biochemical; settings: inhibition of ferricytochrome c reduction; 0.003-3 mM tested; n=5
Experimental: Assessment of superoxide scavenging activity in vitro
The superoxide scavenging activity of TEMPO-4-mononitrate (0.003-3 mM) and reference compound superoxide dismutase (SOD, 200 U/ml), were determined using a photometric microassay in vitro (Laight et al., Environ. J. Toxicol. Pharmracol., 3, 65-68, 1997) developed from the assay of McCord & Fridovich (J. Biol. Chem., 244, 6059-55, 1969). The assay mixture consisted of (final concentration): 50 μl ferricytochrome c (100 μM); 10 μl xanthine oxidase (20 mU/ml); 20 μl hypoxanthine (100 μM); and 20 μl sample dissolved in isotonic phosphate (10 mM)-buffered saline (PBS, pH 7.4) to make a total volume of 100 μl in a 96-well plate. The reaction was conducted at room temperature and initiated by the addition of hypoxanthine. The increase in optical density (OD) at […] was measured over a 3 min period of 30 s intervals and initial reaction rates determined at least in triplicate.
There was a linear relationship between the initial reaction rate and the concentration of xanthine oxidase (5-20 mU/ml) (r=0.9982, P<0.002, n=4). […] Xanthine oxidase at 20 mU/rml, which provided an initial reaction rate of 28.3±1.7 mOD/min (n=4), was adopted for subsequent inhibition studies (see McCord & Fridovich, 1969). The initial reaction rate was depressed by SOD (200 U/ml) by 95.3±1.1% (n=4, P<0.01) and by TEMPO-4-mononitrate (see FIG. 1).

[5] = tested on: rat aortic rings (RARs); experiment: in vitro vasorelaxation of epinephrine-contracted rat aortic rings; type: cell-based; settings: control RARs contracted with epinephrine 1 μM; FIGS. 2 and 3
Experimental: as §1
In vitro vasorelaxation: Thoracic aortae were removed following anesthesia with intraperitoneal injection of ketamine and xylazine (50 and 10 mg/kg, respectively). The paraadventetial tissue surrounding the vessel was carefully removed. Aortae were cut into rings of 4-5 mm and mounted onto the tissue path. The path buffer (Krebs-bicarbonate) was constantly gassed with carbogen and maintained at 37° C. The rings were preloaded under 2 g tension and equilibrated for 90 min with buffer changed every 15 min. After stabilization, the rings were contracted with epinephrine (1 μM). Commulative Concentration-Response Curves (CCRC) were constructed for NO-TEMPO, glyceryl trinitrate (GTN) and S-nitroso-N-acetylpenicillamine (SNAP). FIGS. 2 and 3 represent the vaso-relaxant effect of NO-TEMPO as compared to the conventional NO-donors GTN and SNAP.

[6] = tested on: cGMP content in aortic tissue; experiment: vascular cGMP content after in vivo administration (RIA); parameters: species or system rat; settings: for effect on vascular cGMP compared to GTN: intravenously in equimolar doses
Experimental: as §1
Experiments were performed in anaesthetized rats as above. Following i.v. administration of NO-TEMPO (0.1, 0.2, 0.5 mg etc.,) the thorax was opened and the aorta removed immediately (within thirty seconds from the administration). After standard processing procedures, cGMP content in the vascular tissue was measured by Radioimmunoassay (RIA) using commercially available kits (i.e., Kit 500 TRK from Amersham).

Compound | tolerance of the hypotensive effect on MAP following successive administration [1] | tolerance induction in vitro [2] | vaso-relaxant effect on rings before and after exposure to GTN [2] | vaso-relaxant potency, control versus NO-TEMPO-pre-treated RARs [2] | tolerance induction in vivo [3] | pIC50 value [4] | vaso-relaxant effect compared to conventional NO-donors GTN and SNAP [5] | mean arterial pressure (MAP) following injection ([1]; 1 mg injection through venous catheter, basal MAP 130±15) | hypotensive effects in vivo compared to GTN and SNAP ([1]; rat, in vivo) | increase in vascular cGMP ([6]; 1 mg i.v. versus basal) | cGMP content in aortic tissue ([6]; 1 mg i.v., aorta removed within thirty seconds, basal 46±10) | tolerance of the vascular cGMP effect ([6]; NO-TEMPO pre-treated rats) | effect on cGMP content of vascular tissue ([6]; control rats) | effect on vascular cGMP compared to GTN ([6]; control rats) | effect on vascular cGMP compared to GTN ([6]; control rats, listed as NO-TEMPO)
CC(=O)N[C@H](C(=O)O)C(C)(C)SN=O (racemic) [SNAP, S-nitroso-N-acetylpenicillamine, reference compound] | attenuation to their effect on MAP develops | – | – | – | – | – | – | – | – | – | – | – | – | – | –
O=[N+]([O-])OCC(CO[N+](=O)[O-])O[N+](=O)[O-] [GTN, glyceryl trinitrate, reference compound] | attenuation to their effect on MAP develops | induces tolerance both to itself and to NO-TEMPO | development of GTN tolerance | no significant difference | does induce tolerance to itself and to NO-TEMPO | – | – | – | – | – | – | – | – | – | –
CC1(C)CC(O[N+](=O)[O-])CC(C)(C)N1[O] [TEMPO-4-mononitrate, 4-Nitrato-2,2,6,6-tetramethylpiperidinyloxy, free radical] | lack of tolerance development | does not induce tolerance neither to itself nor to GTN | significant difference | no significant difference | does not induce tolerance either to itself or to GTN | 2.89±0.03 | superiority of NO-TEMPO to both of these NO-donors | 60±10 mm Hg | superiority of this drug to both GTN and SNAP | 4-5 fold | 197±18 pmole/g tissue | lack of tolerance induction | significant increase | compared well with that of GTN | superior activity as compared to GTN
